The test system of one experiment is ApoB/HepG2. The experiment can be described thus: Lipid Screen & IC50 Determination Protocol: ApoB ELISA of HEPG2 media. To be noted: HEPG2, 24 hours; for IC50: bare number = IC50, NE not defined in the patent, read-out: ApoB/HepG2 IC50 or % inhibition at [μM]: IC50. Type of experiment: cell-based, human. As to the method:
HEPG2 cell was started in 10 ml of MEM, 10% FBS, 1 mM Sodium Pyruvate. The cells were incubated in a tissue culture incubator. The cells were split into 4×96-wells plate in MEM, 10% FBS, 1 mM Sodium Pyruvate and allowed to grow to about 50% confluency and then removed.
The cells were treated with the desired concentration of compounds in 100 μl DMEM, 1% RSA for 24 hours. The compounds are dissolved in DMSO.
On the same day, 4×96-wells NuncImmunoSorb plate is coated with 100 μl of mouse anti-human ApoB monoclonal 1D1 (1:1000 dilution in 1×PBS, pH 7.4). The coating is allowed overnight.
The coated plate is washed 3 times with 1×PBS, pH 7.4, −0.05% Tween 20. 100 μl of the standards is added to the selected wells. ApoB standards are prepared at 6.25, 3.12, 1.56, 0.78, 0.39 ng, and each concentration is done in triplicates. For samples:
90 μl of 1×PBS, pH 7.4, −0.05% Tween 20 is added to each well corresponding to the sample. 10 μl of media is transferred from the treated HEPG2 plates to the ApoB ELISA plate. The plate is incubated at room temperature for 2 hours, rocking gently.
Wash the coated plate 3× with 1×PBS, pH 7.4, −0.05% Tween 20. Add 100 μl of sheep anti-human ApoB polyclonal from Boehringer Mannheim. (1:2000 dilution in 1×PBS, pH 7.4, −0.05% Tween 20) from Boehringer Mannheim. Incubate at room temperature for 1 hour, rocking gently. Wash the coated plate 3× with 1×PBS, pH 7.4, −0.05% Tween 20. Add 100 μl of rabbit anti-sheep IgG (1:2000 dilution in 1×PBS, pH 7.4, −0.05% Tween 20). Incubate at room temperature for 1 hour, rocking gently. Wash the coated plate 3× with 1×PBS, pH 7.4, −0.05% Tween 20. Add 100 μl of substrate (10 ml of distilled water, 100 μl of TMB (10 mg/ml), and 1 μl of hydrogen peroxide). Allow color to emerge and stop reaction with 25 ul of 8N sulfuric acid. Wells are read with MicroPlate Reader @ […]. Graph accumulation of ApoB in media as a percentage of control for each sample and their concentration. A determination of IC50 is obtained from the graph.
The degree of inhibition of the compounds of formulas (I) and (II) was determined by the assays described in Examples 62-64.
Background: An ELISA detects its analyte on a solid surface through an enzyme-linked reagent.

A further experiment relates to VCAM-1. The experiment can be described thus: VCAM-1 Assay: TNF-stimulated cells, cell-surface ELISA. Type of experiment: cell-based. Here is the method:
Two to four confluent P150 plates are trypsinized and the cells transferred to a 50 mL conical centrifuge tube. The cells are pelleted, resuspended, and counted using the trypan blue exclusion method.
Cells are resuspended at a concentration of 36,000 cells/mL and 1 mL is aliquoted per well.
Cells are split into 24 well tissue culture plates. The cells in each well should be approximately 90-95% confluent by the following day. Cells should not be older than passage 8.
Compounds are initially screened at 50 μM and 10 μM. A 50 mM stock solution for each compound is prepared in culture medium. The stock solution is diluted to 5 mM and 1 mM. When 10 μL of the 5 mM solution is added to the well (1 mL medium/well), the final concentration will be 50 μM. Adding 10 μL of the 1 mM solution to the well will give a final concentration of 10 μM.
Compounds which will not go into solution in culture medium are resuspended in DMSO at a concentration of 25 mM. The stock solution is then diluted to the final concentration in culture medium. The old medium is aspirated and 1 mL of the new medium with the compound is added. For example, if the final concentration is 50 μM, the 2 μL of the 25 mM stock is added per mL of culture medium. The […] solution is diluted for lower concentrations.
The compounds are added to the plate (each compound is done in duplicate). One plate is done for VCAM expression and one plate is done for ICAM expression.
Immediately after the compounds are added, TNF is added to each well. 100 units/mL TNF is usually added to each well. Since each lot of TNF varies in the number of units, each new lot is titrated to determine the optimum concentration. Therefore this concentration will change. If 100 units/mL is bing used, dilute the TNF to 10 units/μL and add 10 μL to each well.
The plates are incubated at 37° C., 5% CO2 overnight (approximately 16 hours). The next day the plates are checked under the microscope to see if there are any visual signs of toxicity. Records are made of any cell death, debris, or morphology changes, as well as insoluble compounds (particulate or turbity).
In order to assess MCP-1, the media (500 μL) is saved and frozen at −70° C. Wash cells once with roughly 1 ml/well of Hanks Balance Salt Solution (HBSS) or PBS. Gently empty the wash solution and then tap the plate onto paper towels. Add either 250 μL/well of HBSS +5% FCCS to the plank (no primary antibody wells) or 250 μL/well of primary antibody diluted in HBSS +5% FCS. Incubate for 30 minutes at 37° C. Wash the wells twice with 0.5 mL/well HBSS or PBS and gently tap the plates onto paper towels after the last wash. Add 250 μL/well of HRP-conjugated second antibody diluted in HBSS +5% FCS to every well including the blank wells (no primary antibody). Incubate at 37° C. for 30 minutes. Wash the wells four times with 0.5 mL/well HBSS or PBS and gently tap the plates onto paper towels after the last wash. Add 250 μL/well of substrate solution. Incubate at room temperature in the dark until there is adequate color development (blue). Note the length of time incubation was performed (typically 15-30 minutes). Add 75 μL/well stopper solution (8N sulfuric acid), and read A450 nm.

A value given as a limit tells only on which side of the number the result lay.

A word on the inhibition: it is the relative decrease from the control value, in per cent. The low end stands for a weak effect, the high end for a strong effect.

In turn, `CC(C)(Sc1ccc(OCCCC(=O)O)cc1)Sc1cc(C(C)(C)C)c(O)c(C(C)(C)C)c1` [Butanoic acid, 4-[4-[[1-[[3,5-bis(1,1-dimethylethyl)-4-hydroxyphenyl]thio]-1-methylethyl]thio]phenoxy]-] returned an inhibition at 15 µM in the experiment with ApoB/HepG2 (Homo sapiens, at 15 μM) of 47%.

`CC(C)(Sc1cc(C(C)(C)C)c(O)c(C(C)(C)C)c1)Sc1cc(C(C)(C)C)c(OCCCC(=O)O)c(C(C)(C)C)c1` [Butanoic acid, 4-[4-[[1-[[3,5-bis(1,1-dimethylethyl)4-hydroxyphenyl]thio]-1-methylethyl]thio]-2,6-bis(1,1-dimethylethyl)phenoxy]-] gave an inhibition at 15 µM in the experiment on ApoB/HepG2 (Homo sapiens, at 15 μM) of 77%.

Turning to `CC(C)(Sc1cc(C(C)(C)C)c(O)c(C(C)(C)C)c1)Sc1cc(C(C)(C)C)c(OC(=O)CCCO)c(C(C)(C)C)c1` [Butanoic acid, 4-hydorxy-, 4-[[1-[[3,5-bis(1,1-dimethylethyl)-4-hydroxyphenyl]thio]-1-methylethyl]thio]-2,6-bis(1,1-dimethylethyl)phenyl ester], the “ApoB/HepG2 % inhibition at [μM]” value in the experiment on ApoB/HepG2 (at 15 μM) was found to be 81% at 15.

Take `CCCCC(OC(C)=O)Sc1cc(C(C)(C)C)c(O)c(C(C)(C)C)c1` (stereo not drawn) [2,6-di-tert-butylthio((1′-(acetoxy))pentyl)phenol]: the IC50 in the experiment on ApoB/HepG2 was 30 µM.

In the case of `CN(C)CCCSc1cc(C(C)(C)C)c(O)c(C(C)(C)C)c1` [2,6-di-tert-butyl-4-thio(3′-(dimethylamino)propyl))phenol], the “VCAM-1 % inhibition at [μM]” value in the experiment with VCAM-1 (at 50 μM) turned out to be 30% at 50.

Compound `CC(C)(Sc1cc(C(C)(C)C)c(O)c(C(C)(C)C)c1)Sc1cc(C(C)(C)C)c(OCC(=O)N[C@@H](CCC(=O)O)C(=O)O)c(C(C)(C)C)c1` [Glutamic acid, N-[[4-[[1-[[3,5-bis(1,1-dimethylethyl)-4-hydroxyphenyl]thio]-1-methylethyl]thio]-2,6-bis(1,1-dimethylethyl)phenoxy]acetyl]-] came in with an inhibition at 15 µM with ApoB/HepG2 (Homo sapiens, at 15 μM) of 94%.

Regarding `CC(C)(Sc1cc(C(C)(C)C)c(O)c(C(C)(C)C)c1)Sc1cc(C(C)(C)C)c(OC(=O)CCC(=O)O)c(C(C)(C)C)c1.N=C(N)NCCC[C@H](N)C(=O)O` [L-Arginine, mono[4-[[1-[[3,5-bis(1,1-dimethylethyl)-4-hydroxyphenyl]thio]-1-methylethyl]thio]-2,6-bis(1,1-dimethylethyl)phenyl butanedioate]], in the experiment with ApoB/HepG2 (at 15 μM), the “ApoB/HepG2 % inhibition at [μM]” value came to 93% at 15.

Take `CC(C)(Sc1cc(C(C)(C)C)c(O)c(C(C)(C)C)c1)Sc1cc(C(C)(C)C)c(OCC(=O)NCC(=O)O)c(C(C)(C)C)c1` [Glycine, N-[[4-[[1-[[3,5-bis(1,1-dimethylethyl)-4-hydroxyphenyl]thio]-1,methylethyl]thio]-2,6-bis(1,1-dimethylethyl)phenoxylacetyl]-]: the “ApoB/HepG2 % inhibition at [μM]” value in the experiment with ApoB/HepG2 (at 15 μM) came to 83% at 15.

For the compound `COc1c(C(C)(C)C)cc(SC(C)(C)Sc2cc(C(C)(C)C)c(OC(=O)CCC(=O)O)c(C(C)(C)C)c2)cc1C(C)(C)C` [Butanedioic acid, mono[4-[[1-[[3,5-bis(1,1-dimethylethyl)-4-methoxyphenyl]thiol]1-methylethyl]thiol-2,6-bis(1,1-dimethylethyl)phenyl] ester], the “ApoB/HepG2 % inhibition at [μM]” value with ApoB/HepG2 (at 15 μM) is 89% at 15.

As to `CC(C)(C)c1cc(SCCc2ccc([N+](=O)[O-])cc2)cc(C(C)(C)C)c1O` [2,6-di-tert-butyl-4-thio(4′-nitrophenethyl)phenol], the IC50 in the experiment with VCAM-1 (bare number = IC50, NE not defined in the patent, read-out: VCAM-1 IC50 or % inhibition at [μM]: IC50) is 15 µM.

For the compound `CC(C)(CO)CC(=O)Oc1c(C(C)(C)C)cc(SC(C)(C)Sc2cc(C(C)(C)C)c(O)c(C(C)(C)C)c2)cc1C(C)(C)C` [Butanoic acid, 4-hydroxy-3,3-dimethyl-, 4-[[1-[[3,5-bis(1,1-dimethylethyl)-4-hydroxyphenyl]thio]-1-methylethyl]thio]-2,6-bis(1,1-dimethylethyl)phenyl ester], the inhibition at 15 µM in the experiment on ApoB/HepG2 (Homo sapiens, at 15 μM) was 90%.

For `COc1c(C(C)(C)C)cc(SCc2ccc(C(F)(F)F)cc2)cc1C(C)(C)C` [2,6-di-tert-butyl-1-methoxy-4-thio(4′-trifluoromethyl)benzyl)benzene], the IC50 in the experiment on ApoB/HepG2 is below 10 µM.

In the case of “1,2,3-Butanetriol, 4-[4-[[1-[[3,5-bis(1,1-dimethylethyl)-4-hydroxyphenyl]thio]=1-methylethyl]thio]-2,6-bis(1,1-dimethylethyl)phenoxy]-2-hydroxypropyl]-”, the “ApoB/HepG2 % inhibition at [μM]” value with ApoB/HepG2 (at 1 μM) came to 6% at 1.

In the experiment on ApoB/HepG2 (Homo sapiens, at 5 μM), `CC(C)(Sc1cc(C(C)(C)C)c(O)c(C(C)(C)C)c1)Sc1cc(C(C)(C)C)c(OC(=O)CN)c(C(C)(C)C)c1` [Glycine, 4-[[1-[[3,5-bis(1,1-dimethylethyl)-4-hydroxyphenyl]thio]-1-methylethyl]thio]-2,6-bis(1,1-dimethylethyl)phenyl ester] had an inhibition at 5 µM of 30%.

For the compound `CC(C)(Sc1cc(C(C)(C)C)c(O)c(C(C)(C)C)c1)Sc1cc(C(C)(C)C)c(OCC(O)CO)c(C(C)(C)C)c1` (stereo not drawn) [1,2-Propanediol, 3-[4-[[1-[[3,5-bis(1,1-dimethylethyl)-4-hydroxyphenyl]thio]-1-methylethyl]thio]-2,6-bis(1,1-dimethylethyl)phenoxy]-], in the experiment with ApoB/HepG2 (Homo sapiens, at 15 μM), at 15 µM the inhibition was 40%.

Turning to `Cc1cc(SC(C)(C)Sc2cc(C(C)(C)C)c(O)c(C(C)(C)C)c2)cc(C)c1OCCCC(=O)O` [Butanoic acid, 4-[4-[[1-[[3,5-bis(1,1-dimethylethyl)-4-hydroxyphenyl]thio]-1-methylethyl]thio]2,6-dimethylphenoxy]-], in the experiment with ApoB/HepG2 (Homo sapiens, at 15 μM), the inhibition at 15 µM was 41%.

Regarding `CC(C)(Sc1cc(C(C)(C)C)c(O)c(C(C)(C)C)c1)Sc1cc(C(C)(C)C)c(OC(=O)c2ccc([N+](=O)[O-])o2)c(C(C)(C)C)c1` [2-Furancarboxylic acid, 5-nitro-, 4-[[1-[[3,5-bis(1,1-dimethylethyl)-4-hydroxyphenyl]thio]-1-methylethyl]thio]-2,6-bis(1,1-dimethylethyl)phenyl ester], the inhibition at 15 µM in the experiment on ApoB/HepG2 (Homo sapiens, at 15 μM) came out at 17%.

For the compound `CC(C)(Sc1cc(C(C)(C)C)c(O)c(C(C)(C)C)c1)Sc1cc(C(C)(C)C)c(OCC(O)CNCC(=O)O)c(C(C)(C)C)c1` (stereo not drawn) [Glycine, N-[3-[4-[[1-[(3,5-bis(1,1-dimethylethyl)-4-hydroxyphenyl]thio]-1-methylethyl]thio]-2,6-bis(1,1-dimethylethyl)phenoxy]2-hydroxypropyl]-], the inhibition at 15 µM in the experiment on ApoB/HepG2 (Homo sapiens, at 15 μM) amounted to 45%.
